Measurements: patent US20250059196A1 (SHANGHAI HANSOH BIOMEDICAL CO., LTD., priority 2021, published 2025)
Read-outs that look alike come from different tables or passages of the source.

Columns and labels:
[1] = Pharmacokinetics of oral administration in Balb/C mice; format: in vivo; set-up: Cmax: unit: ng/mL; settings: 30 mg/kg, P.O., plasma
Description: Balb/C mice were used as test animals to study the pharmacokinetic behavior of the compound in the plasma of mice after oral administration at a dose of 30 mg/kg.
3 Balb/C mice (3/example), male, from Shanghai Jiesijie Experimental Animal Co., Ltd., animal production license number (SCXK (Shanghai) 2013-0006 N0.311620400001794).
3 Balb/C mice, male; p.o. respectively at a dose of 30 mg/kg and an administration volume of 10 mL/kg after the mice were fasted overnight.
Before and after administration of mice, 0.1 mL of blood was collected from the orbit at 0, 0.5, 1, 2, 4, 6, 8 and 24 h, and placed in EDTA-K2 test tubes, which was centrifuged at 6000 rpm at 4° C. for 6 min to separate plasma which was stored at −80° C.
• 1) 160 μL of acetonitrile was added to 40 μL of plasma sample for precipitation, and same was mixed and centrifuged at 3500×g for 5 to 20 min. • 2) 100 μL of the treated supernatant solution was taken and subjected to LC/MS/MS to analyze the concentrations of the test compounds.
• Liquid phase conditions: Shimadzu LC-20AD pump • Mass spectrometry conditions: AB Sciex API 4000 mass spectrometer • Chromatographic column: Phenomenex Gemiu 5 um C18 50×4.6 mm • Mobile phase: liquid A is 0.1% aqueous formic acid solution, liquid B is acetonitrile • flow rate: 0.8 mL/min • Elution time: 0-4.0 min, the eluent is as follows:
The main pharmacokinetic parameters were calculated using WinNonlin 8.2.

[2] = molecular target: MALT1 protease activity in TMD8 cells (substrate BCL-10) (Homo sapiens (Human), UniProt Q9UDY8); assay: Intracellular MALT1 protease activity detection (BCL-10 ELISA in TMD8 cells); format: cell-based; settings: undigested BCL-10 by ELISA, 30 min compound then 2 h stimulation cocktail, read-out: Bcl10 TMD8 IC50
Description: By detecting the digestion level of the substrate BCL-10 by MALT1 in TMD8 cells, the inhibitory effect of the compound on MALT1 protease activity in the cellular environment was tested.
The ELISA sandwich method was used to detect the content of undigested BCL-10 protein in cells and determine the inhibitory effect of compounds on intracellular MALT1 protease activity. The highest concentration of the compound detected was 10000 nM, 3-fold dilution, a total of 9 concentrations (10000 nM-1.5 nM). Cells were plated at an appropriate density. Compounds of corresponding concentrations were first added for action for 30 min, and then eBioscience cell stimulation cocktail was added to stimulate the cells for 2 h. Cell lysate was then collected. The cell lysate was added to the assay plate previously coated with recombinant BCL-10 antibody (Abcam, #Ab33905) and incubated at 4° C. overnight. The next day, BCL-10 detection antibody (Santacruz, #Sc-5273HRP) was added and incubated for 2 h, TMB substrate was used for color development for about 30 min, then the color development was terminated, and a microplate reader was used for detection.
2) Curve fitting: Log(inhibitor) vs. response—Variable slope (four parameters) in GraphPad Prism 6 was used to perform fitting equation analysis on compound concentration and corresponding inhibition rate, the curve was fit and compound IC50 value was obtained.
(§1) The fitting calculation equation is Y=Bottom+(Top−Bottom)/(1+10^((Log IC50−X)*HillSlope))

[3] = Caco-2 bidirectional permeability test; settings: human, Caco-2
Description: (§3) The purpose of this experiment is to test the bidirectional permeability of the compound through the Caco-2 cell model and evaluate whether the compound is transported by efflux transporters.
(§4) Liquid chromatography-mass spectrometer, centrifuge, vortexer, pipette, 96-well test plate (HTS Transwell Plate), acetonitrile solution containing internal standard, Caco-2 cells (ATCC), Hank's balance solution (HBSS), fluorescent yellow (LY), dimethyl sulfoxide (DMSO).
(§5) 108 μL of transport buffer (HBSS containing 10 μM of the example compound) was added to the administration end of A to B. • b. 300 μL of transport buffer (HBSS containing DMSO) was added to the receiving end of A to B. • c. 300 μL of transport buffer (HBSS containing 10 μM example compound) was added to the administration end of A to B. • d. 108 μL of transport buffer (HBSS containing DMSO) was added to the receiving end of A to B. • e. incubation was performed for 90 min. • d. a sample was taken, processed and detected with mass spectrometry.
(§6) • Instruments: Liquid Chromatography; • Chromatographic column: Waters XSelect HSS T3 2.5 μm (2.1×50 mm); • Mobile phase: Phase A: 0.1% formic acid in pure water; Phase B: 0.1% formic acid in acetonitrile.
(§7) • Instruments: AP16500+liquid chromatography-mass spectrometer; • The ion source is electrospray ionization source (ESI); • The detection method is positive ion detection;
(§8) The scanning method is selected reaction monitoring (MRM).

[4] = molecular target: Recombinant human MALT1/MLT protein (Homo sapiens (Human), UniProt Q9UDY8); assay: Inhibitory effect on MALT1 enzyme activity (Ac-LRSR-AMC substrate, fluorescence 460 nm); format: biochemical; settings: 10 nM FL MALT1, Ac-LRSR-AMC substrate, 50 min pre-incubation, 4 h reaction
Description: Ac-LRSR-AMC was used as the substrate to test the IC50 of the inhibitory activity of compounds on MALT1 enzyme activity at their Km concentration.
Ac-LRSR-AMC was used as the substrate which was digested by MALT1 to produce products, which produced fluorescence that could be detected at 460 nm. The highest concentration of the compound detected was 1000 nM, 3-fold dilution, a total of 11 concentrations (1000 nM-0.017 nM). The reaction system is 10 nM FL MALT1 protein, […] Ac-LRSR-AMC, 50 mM Tris pH 7.5, 0.6M Citrate, 1 mM DTT, 1 mM EDTA, 0.05% BSA and 1.5% DMSO. The compound and the enzyme were pre-incubated at room temperature for 50 min. The substrate was then added and the reaction was carried out for 4 h.
The original data (460 nm reading) was calculated according to the following formula to obtain the inhibition rate.
(§2) Log(inhibitor) vs. response—Variable slope (four parameters) in GraphPad Prism 6 was used to perform fitting equation analysis on compound concentration and corresponding inhibition rate, the curve was fit and compound IC50 value was obtained.
as §1

OCI-Ly3 cells = assay: Inhibition of proliferation of OCI-Ly3 cells (CellTiter-Glo); format: cell-based, human; settings: 96 h incubation, read-out: Inhibition test of proliferation of OCI-Ly3 cells IC50
Description: The compound's inhibitory effect on the proliferation of TMD8 and OCI-Ly3 cells was evaluated through cell proliferation inhibition experiments.
The compound's inhibitory effect on the proliferation of TMD8 and OCI-Ly3 cells was detected by the CellTiter-Glo method. The highest concentration of the compound detected was 1000 nM, 3-fold dilution, a total of 9 concentrations (1000 nM-0.15 nM). After the cells were plated at an appropriate density, compounds were added the next day and incubated for 96 h before detection using the CellTiter-Glo Luminescent detection kit.
as §2, §1

[5] = male, mouse, po, read-out: AUC 0-t
[6] = male, mouse, po, read-out: Cmax
[7] = male, mouse, po, read-out: Tmax

Chain of Recombinant human MALT1/MLT protein (Q9UDY8 whole entry): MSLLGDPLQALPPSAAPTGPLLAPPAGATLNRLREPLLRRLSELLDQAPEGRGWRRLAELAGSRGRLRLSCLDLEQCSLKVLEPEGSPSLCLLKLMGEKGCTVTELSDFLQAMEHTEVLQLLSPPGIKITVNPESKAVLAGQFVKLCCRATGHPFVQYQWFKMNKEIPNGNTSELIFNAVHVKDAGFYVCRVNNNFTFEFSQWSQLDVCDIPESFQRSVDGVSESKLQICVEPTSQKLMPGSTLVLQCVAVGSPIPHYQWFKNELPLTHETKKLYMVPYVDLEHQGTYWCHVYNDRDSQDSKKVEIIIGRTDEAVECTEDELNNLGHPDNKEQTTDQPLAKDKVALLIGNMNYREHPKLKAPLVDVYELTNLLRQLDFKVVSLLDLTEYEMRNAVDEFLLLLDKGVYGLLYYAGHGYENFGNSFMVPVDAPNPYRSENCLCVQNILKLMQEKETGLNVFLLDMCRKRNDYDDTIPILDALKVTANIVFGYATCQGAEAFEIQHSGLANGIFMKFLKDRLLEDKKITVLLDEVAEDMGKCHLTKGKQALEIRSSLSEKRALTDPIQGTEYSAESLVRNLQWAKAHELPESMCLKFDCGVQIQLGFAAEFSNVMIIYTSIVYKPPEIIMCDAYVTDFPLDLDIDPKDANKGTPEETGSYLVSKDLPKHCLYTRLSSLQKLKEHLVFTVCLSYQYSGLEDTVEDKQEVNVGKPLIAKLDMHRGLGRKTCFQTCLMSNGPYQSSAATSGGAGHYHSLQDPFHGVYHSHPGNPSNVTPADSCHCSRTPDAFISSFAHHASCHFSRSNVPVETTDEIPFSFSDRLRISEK
Chain of MALT1 protease activity in TMD8 cells (substrate BCL-10) (Q9UDY8 whole entry): as above
Description for Caco-2 cells: as §3, §4, §5, §6, §7, §8

SMILES | AUC(0-inf) ([1]; male, mouse, po) | half-life ([1]; male, mouse, po) | AUC(0-t) [1, 5] | Cmax [1, 6] | MRT ([1]; male, mouse, po, read-out: MRT) | Tmax [1, 7] | IC50 [2] | IC50 [4] | IC50 (OCI-Ly3 cells; Homo sapiens) | further results
O=C(Nc1cnc(-n2nccn2)c(Cl)c1)c1cnn(-c2ccc3c4c(cccc24)C(=O)N3)c1C(F)(F)F [Example 5, N-(6-(2H-1,2,3-triazol-2-yl)-5-chloropyridin-3-yl)-1-(2-oxo-1,2-dihydrobenzo[cd]indol-6-yl)-5-trifluoromethyl-1H-pyrazole-4-carboxamide] | 64100 ng·h/mL | 2.1 h | 64100 ng·h/mL | 7180 ng/mL | 5.2 h | 2 h | 36 nM | 15 nM | 120 nM | Papp A→B at 90 min, 10 µM [3]: 1 ×10⁻⁶ cm/s; Papp B→A at 90 min, 10 µM [3]: 7.03 ×10⁻⁶ cm/s; efflux ratio at 90 min, 10 µM [3]: 7.09
O=C(Nc1cnc(-n2nccn2)c(C(F)(F)F)c1)c1cnn(-c2ccc3c4c(cccc24)C(=O)N3)c1C1CC1 [Example 56, N-(6-(2H-1,2,3-triazol-2-yl)-5-(trifluoromethyl)pyridin-3-yl)-5-cyclopropyl-1-(2-oxo-1,2-dihydrobenzo[cd]indol-6-yl)-1H-pyrazole-4-carboxamide] | – | – | – | – | – | – | 93 nM | 31 nM | 152 nM | –
O=C(Nc1cnc(-n2nccn2)c(C(F)F)c1)c1cnn(-c2ccc3c4c(cccc24)C(=O)N3)c1C(F)(F)F [Example 49, N-(5-difluoromethyl-6-(2H-1,2,3-triazol-2-yl)-pyridin-3-yl)-1-(2-oxo-1,2-dihydrobenzo[cd]indol-6-yl)-5-trifluoromethyl-1H-pyrazole-4-carboxamide] | 105000 ng·h/mL | 2.1 h | 105000 ng·h/mL | 15300 ng/mL | 4.3 h | 2 h | 73 nM | 28 nM | 97 nM | –
O=C(Nc1cnc(-n2nccn2)c(C(F)(F)F)c1)c1cnn(-c2cnc3c4c(cccc24)C(=O)N3)c1C(F)(F)F [Example 68] | – | – | – | – | – | – | 72 nM | 51 nM | – | AUC0-∞ [1]: 10,388 ng/mL*hr; AUC(0-t) [1]: 10,168 ng/mL*h; Cmax [1]: 2,670 ng/mL; MRT [1]: 2.6 h; T1/2 [1]: 1.2 h; Tmax [1]: 0.5 h; IC50 (OCI-Ly3 cells): 271 nM
Cc1ncn(-c2ncc(NC(=O)c3cnn(-c4ccc5c6c(cccc46)C(=O)N5)c3C(F)(F)F)cc2Cl)n1 [Example 46] | – | – | – | – | – | – | 80 nM | 93 nM | – | IC50 (OCI-Ly3 cells): 222 nM
O=C(Nc1ccnc(C(F)(F)F)c1)c1cnn(-c2ccc3c4c(cccc24)C(=O)N3)c1C(F)(F)F [Example 3] | – | – | – | – | – | – | 83 nM | 105 nM | – | AUC0-∞ [1]: 341,390 ng/mL*hr; AUC(0-t) [1]: 330,088 ng/mL*h; Cmax [1]: 23,733 ng/mL; MRT [1]: 7.4 h; T1/2 [1]: 4.7 h; Tmax [1]: 4.0 h; Papp A − B (Caco-2 cells; Caco-2): 1.57 10^−6 cm · s^−1; Papp B − A (Caco-2 cells; Caco-2): 10.24 10^−6 cm · s^−1; Papp(B − A)/Papp(A − B) (Caco-2 cells; human, Caco-2, 90 min, 10 μM): 6.52
O=C(Nc1cc(Cl)n2ncc(Cl)c2c1)c1cnn(-c2ccc3c4c(cccc24)C(=O)N3)c1C(F)(F)F [Example 13, N-(3,7-dichloropyrazolo[1,5-a]pyridin-5-yl)-1-(2-oxo-1,2-dihydrobenzo[cd]indol-6-yl)-5-trifluoromethyl-1H-pyrazole-4-carboxamide] | 67800 ng·h/mL | 6.2 h | 62700 ng·h/mL | 4380 ng/mL | 9.4 h | 4 h | – | 107 nM | 272 nM | Papp A→B at 90 min, 10 µM [3]: 7.63 ×10⁻⁶ cm/s; Papp B→A at 90 min, 10 µM [3]: 19.1 ×10⁻⁶ cm/s; efflux ratio at 90 min, 10 µM [3]: 2.5
O=C(Nc1cnc(-n2nccn2)c(Cl)c1)c1cnn(-c2ccc3c4c(cccc24)C(=O)N3)c1C1CC1 [Example 60, N-(5-chloro-6-(2H-1,2,3-triazol-2-yl)-pyridin-3-yl)-5-cyclopropyl-1-(2-oxo-1,2-dihydrobenzo[cd]indol-6-yl)-1H-pyrazole-4-carboxamide] | – | – | – | – | – | – | 57 nM | 16 nM | 132 nM | –
O=C(Nc1ccc(-n2nccn2)c(Cl)c1)c1cnn(-c2ccc3c4c(cccc24)C(=O)N3)c1C1CC1 [Example 63, N-(3-chloro-4-(2H-1,2,3-triazol-2-yl)phenyl)-5-cyclopropyl-1-(2-oxo-1,2-dihydrobenzo[cd]indol-6-yl)-1H-pyrazole-4-carboxamide] | – | – | – | – | – | – | 58 nM | 28 nM | 154 nM | –
